A short description of data set [1]: Stability of the compound in PBS buffer measured after 4 hrs by radio-HPLC analysis. It is filed as physicochemical.
The nature of data set [2]: Stability in mouse plasma measured after 4 hrs by radio-HPLC analysis. It is filed as ADME, cell-free.
Data set [3] in a line: Drug uptake in human 22Rv1 cells at 3.7 10^-2MBq measured after 4 hrs relative to control. It is filed as ADME, cell-based. To be noted: cwr22r.
The nature of data set [4]: Drug uptake in human 22Rv1 cells at 3.7 10^-2MBq pretreated with 2-PMPA for 30 mins followed by compound addition and measured after 4 hr relative to control. To be noted: cwr22r. The format is ADME, cell-based.
The nature of data set [5]: Drug uptake in human 22Rv1 cells at 3.7 10^-2MBq measured after 1 hr. The format is ADME, cell-based. To be noted: cwr22r.
Data set [6] in a line: Drug uptake in human 22Rv1 cells at 3.7 10^-2MBq pretreated with 2-PMPA for 30 mins followed by compound addition and measured after 1 hr. It is filed as ADME, cell-based. To be noted: cwr22r.
The nature of data set [7]: Drug uptake in mouse tumor xenografted with human 22Rv1 cells at 7.4 MBq, iv measured after 2 hrs by PET imaging analysis relative to control. The format is ADME, organism-based, Neoplasm, CWR22R. To be noted: in vivo. For orientation: In xenograft studies the graft and the host belong to different species.

Molecules are shown by their SMILES.

In the case of `O=C(O)CC[C@H](NC(=O)N[C@@H](CCCCNC(=O)[C@H](Cc1ccc2ccccc2c1)NC(=O)c1ccc(CNC(=O)[C@H](CCC(=O)O)NC(=O)[C@H](CCC(=O)O)NC(=O)c2ccc(OS(=O)(=O)[18F])cc2)cc1)C(=O)O)C(=O)O`, the Stability result in data set [1] and in data set [2] was “Stable” in each case. The Drug uptake in data set [3] is listed as 0.65%; in data set [4] it was 0.14%; in data set [5], “Not Active”; in data set [6], “Not Active”; in data set [7] it was 2.68 % ID/g.

The values are drawn from ChEMBL document CHEMBL5550152, “Design, synthesis and evaluation of novel prostate-specific membrane antigen-targeted aryl [18F]fluorosulfate PET tracers” (Bioorg Med Chem, 2024).
